According to US6355799B1, “Substituted benzene compounds, process for their preparation, and herbicidal and defoliant compositions containing them” (ISK Americas Incorporated, priority 1997, dated 2002):

Tests used:
Type in all cases: in vivo
[1] = system: velvetleaf (Abutilon theophrasti, ABUTH); assay: Post-emerge test, greenhouse herbicide activity screening; conditions: post-emerge, 14 days after application, rating scale 0-100
Method in brief: (§1)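 Herbicidal damage is scored 0 (none) to 100 (complete plant death) two weeks after a simulated field spray. Rates span 15–1000 g ai/ha, delivered in acetone at 187 l/ha. For post-emergence treatments, plants have 2–3 leaves and the spray carries 0.25% v/v non-ionic surfactant.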

[2] = system: johnsongrass (Sorghum halepense, SORHA); assay: as above; conditions: post-emerge, 14 days after application, rating scale 0-100
Method in brief: as §1

[3] = system: ivyleaf morningglory (Ipomoea hederacea, IPOHE); assay: as above; conditions: post-emerge, 14 days after application, rating scale 0-100
Method in brief: as §1

[4] = system: lambsquarters (Chenopodium album, CHEAL); assay: as above; conditions: post-emerge, 14 days after application, rating scale 0-100
Method in brief: as §1

[5] = system: common ragweed (Ambrosia artemisizfolia L., AMBEL); assay: as above; conditions: post-emerge, 14 days after application, rating scale 0-100
Method in brief: as §1

[6] = system: green foxtail (Setaria viridis, SETVI); assay: as above; conditions: post-emerge, 14 days after application, rating scale 0-100
Method in brief: as §1

[7] = system: barnyardgrass (Echinochloa crus-galli, ECHCG); assay: as above; conditions: post-emerge, 14 days after application, rating scale 0-100
Method in brief: as §1

[8] = system: sicklepod (Cassia obtusifolia, CASOB); assay: as above; conditions: post-emerge, 14 days after application, rating scale 0-100
Method in brief: as §1

[9] = system: large crabgrass (Digitaria sanguinalis, DIGSA); assay: as above; conditions: post-emerge, 14 days after application, rating scale 0-100
Method in brief: as §1

[10] = system: redroot pigweed (Amaranthus retroflexus, AMARE); assay: as above; conditions: post-emerge, 14 days after application, rating scale 0-100
Method in brief: as §1

[11] = system: field corn (Zea mays L., var. Dekalb 535, CORN); assay: Pre-emerge test, crop safety; conditions: rated 14 days after application, 0 = no damage, 100 = complete death
Method in brief: (§2)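 Compounds in acetone were track-sprayed at 187 l/ha, 15–1000 g ai/ha, onto sandy loam pots. Pre-emerge seeds were sown one day before spraying, with surface watering afterwards. Post-emerge plants were at the 2–3 leaf stage and sprayed with 0.25% v/v non-ionic surfactant. Injury was rated 0–100 at 14 days.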

[12] = system: upland rice (Oryza sp., var. Tebonnet, RICE); assay: Pre-emerge test, crop safety; conditions: rated 14 days after application, 0 = no damage, 100 = complete death
Method in brief: as §2

[13] = system: velvetleaf (Abutilon theophrasti, ABUTH); assay: Pre-emerge test, greenhouse herbicide activity screening; conditions: rated 14 days after application, 0 = no damage, 100 = complete death
Method in brief: (§3)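 Plants grown in 10 cm pots of sandy loam mix received acetone-dissolved compounds through a moving flat-fan nozzle. Doses ranged from 15 to 1000 g ai/ha. Pre-emerge pots were seeded one day earlier, post-emerge pots 8–21 days earlier. Fourteen days on, each pot was graded 0–100 for damage.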

[14] = system: johnsongrass (Sorghum halepense, SORHA); assay: as above; conditions: rated 14 days after application, 0 = no damage, 100 = complete death
Method in brief: as §3

[15] = system: ivyleaf morningglory (Ipomoea hederacea, IPOHE); assay: as above; conditions: rated 14 days after application, 0 = no damage, 100 = complete death
Method in brief: as §3

[16] = system: lambsquarters (Chenopodium album, CHEAL); assay: as above; conditions: rated 14 days after application, 0 = no damage, 100 = complete death
Method in brief: as §3

[17] = system: common ragweed (Ambrosia artemisizfolia L., AMBEL); assay: as above; conditions: rated 14 days after application, 0 = no damage, 100 = complete death
Method in brief: as §3

[18] = system: green foxtail (Setaria viridis, SETVI); assay: as above; conditions: rated 14 days after application, 0 = no damage, 100 = complete death
Method in brief: as §3

[19] = system: barnyardgrass (Echinochloa crus-galli, ECHCG); assay: as above; conditions: rated 14 days after application, 0 = no damage, 100 = complete death
Method in brief: as §3

[20] = system: sicklepod (Cassia obtusifolia, CASOB); assay: as above; conditions: rated 14 days after application, 0 = no damage, 100 = complete death
Method in brief: as §3

[21] = system: large crabgrass (Digitaria sanguinalis, DIGSA); assay: as above; conditions: rated 14 days after application, 0 = no damage, 100 = complete death
Method in brief: as §3

[22] = system: redroot pigweed (Amaranthus retroflexus, AMARE); assay: as above; conditions: rated 14 days after application, 0 = no damage, 100 = complete death
Method in brief: as §2

[23] = system: field corn (Zea mays L., var. Dekalb 535, CORN); assay: Post-emerge test, crop safety; conditions: post-emerge, 14 days after application, rating scale 0-100
Method in brief: (§4)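 Each test used a mechanized track sprayer delivering 187 l/ha of acetone solution at 15–1000 g ai/ha. Post-emerge foliage at 2–3 leaves was treated with added 0.25% v/v non-ionic surfactant and bottom-watered only. Injury was assessed on day 14, where 100 means total kill.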

[24] = system: upland rice (Oryza sp., var. Tebonnet, RICE); assay: Post-emerge test, crop safety; conditions: post-emerge, 14 days after application, rating scale 0-100
Method in brief: as §4

## COc1c(Cl)cc(F)c(-n2c(=O)cc(C(F)(F)F)n(C)c2=O)c1N(C(=O)c1ccc([N+](=O)[O-])cc1)C(=O)c1ccc([N+](=O)[O-])cc1 [2-69]
[1]; 63 g ai/ha
  phytotoxicity rating ABUTH: 100
[1]; 250 g ai/ha
  phytotoxicity rating ABUTH: 100
[2]; 63 g ai/ha
  phytotoxicity rating SORHA: 0
[2]; 250 g ai/ha
  phytotoxicity rating SORHA: 0
[3]; 63 g ai/ha
  phytotoxicity rating IPOHE: 50
[3]; 250 g ai/ha
  phytotoxicity rating IPOHE: 40
[4]; 63 g ai/ha
  phytotoxicity rating CHEAL: 50
[4]; 250 g ai/ha
  phytotoxicity rating CHEAL: 60
[5]; 63 g ai/ha
  phytotoxicity rating AMBEL: 40
[5]; 250 g ai/ha
  phytotoxicity rating AMBEL: 30
[6]; 63 g ai/ha
  phytotoxicity rating SETVI: 0
[6]; 250 g ai/ha
  phytotoxicity rating SETVI: 0
[7]; 63 g ai/ha
  phytotoxicity rating ECHCG: 0
[7]; 250 g ai/ha
  phytotoxicity rating ECHCG: 0
[8]; 63 g ai/ha
  phytotoxicity rating CASOB: 10
[8]; 250 g ai/ha
  phytotoxicity rating CASOB: 30
[9]; 63 g ai/ha
  phytotoxicity rating DIGSA: 0
[9]; 250 g ai/ha
  phytotoxicity rating DIGSA: 0
[10]; 63 g ai/ha
  phytotoxicity rating AMARE: 40
[10]; 250 g ai/ha
  phytotoxicity rating AMARE: 50
[11]; 63 g ai/ha
  Pre-emerge phytotoxicity rating (0-100), crop damage, CORN: 0
[11]; 250 g ai/ha
  Pre-emerge phytotoxicity rating (0-100), crop damage, CORN: 10
[12]; 63 g ai/ha
  Pre-emerge phytotoxicity rating (0-100), crop damage, RICE: 20
[12]; 250 g ai/ha
  Pre-emerge phytotoxicity rating (0-100), crop damage, RICE: 30
[13]; 63 g ai/ha
  Pre-emerge Herbicidal Activity, phytotoxicity rating (0-100), ABUTH: 100
[13]; 250 g ai/ha
  Pre-emerge Herbicidal Activity, phytotoxicity rating (0-100), ABUTH: 100
[14]; 63 g ai/ha
  Pre-emerge Herbicidal Activity, phytotoxicity rating (0-100), SORHA: 0
[14]; 250 g ai/ha
  Pre-emerge Herbicidal Activity, phytotoxicity rating (0-100), SORHA: 30
[15]; 63 g ai/ha
  Pre-emerge Herbicidal Activity, phytotoxicity rating (0-100), IPOHE: 0
[15]; 250 g ai/ha
  Pre-emerge Herbicidal Activity, phytotoxicity rating (0-100), IPOHE: 40
[16]; 63 g ai/ha
  Pre-emerge Herbicidal Activity, phytotoxicity rating (0-100), CHEAL: 100
[16]; 250 g ai/ha
  Pre-emerge Herbicidal Activity, phytotoxicity rating (0-100), CHEAL: 100
[17]; 63 g ai/ha
  Pre-emerge Herbicidal Activity, phytotoxicity rating (0-100), AMBEL: 50
[17]; 250 g ai/ha
  Pre-emerge Herbicidal Activity, phytotoxicity rating (0-100), AMBEL: 60
[18]; 63 g ai/ha
  Pre-emerge Herbicidal Activity, phytotoxicity rating (0-100), SETVI: 70
[18]; 250 g ai/ha
  Pre-emerge Herbicidal Activity, phytotoxicity rating (0-100), SETVI: 95
[19]; 63 g ai/ha
  Pre-emerge Herbicidal Activity, phytotoxicity rating (0-100), ECHCG: 0
[19]; 250 g ai/ha
  Pre-emerge Herbicidal Activity, phytotoxicity rating (0-100), ECHCG: 10
[20]; 63 g ai/ha
  Pre-emerge Herbicidal Activity, phytotoxicity rating (0-100), CASOB: 0
[20]; 250 g ai/ha
  Pre-emerge Herbicidal Activity, phytotoxicity rating (0-100), CASOB: 80
[21]; 63 g ai/ha
  Pre-emerge Herbicidal Activity, phytotoxicity rating (0-100), DIGSA: 20
[21]; 250 g ai/ha
  Pre-emerge Herbicidal Activity, phytotoxicity rating (0-100), DIGSA: 90
[22]; 63 g ai/ha
  Pre-emerge Herbicidal Activity, phytotoxicity rating (0-100), AMARE: 90
[22]; 250 g ai/ha
  Pre-emerge Herbicidal Activity, phytotoxicity rating (0-100), AMARE: 100
[23]; 63 g ai/ha
  phytotoxicity rating CORN: 0
[23]; 250 g ai/ha
  phytotoxicity rating CORN: 0
[24]; 63 g ai/ha
  phytotoxicity rating RICE: 0
[24]; 250 g ai/ha
  phytotoxicity rating RICE: 0

## COc1c(Cl)cc(F)c(-n2c(=O)cc(C(F)(F)F)n(C)c2=O)c1NC(=O)c1cc([N+](=O)[O-])cc([N+](=O)[O-])c1 [2-70]
[1]; 63 g ai/ha
  phytotoxicity rating ABUTH: 100
[1]; 250 g ai/ha
  phytotoxicity rating ABUTH: 100
[2]; 63 g ai/ha
  phytotoxicity rating SORHA: 0
[2]; 250 g ai/ha
  phytotoxicity rating SORHA: 0
[3]; 63 g ai/ha
  phytotoxicity rating IPOHE: 60
[3]; 250 g ai/ha
  phytotoxicity rating IPOHE: 60
[4]; 63 g ai/ha
  phytotoxicity rating CHEAL: 50
[4]; 250 g ai/ha
  phytotoxicity rating CHEAL: 70
[5]; 63 g ai/ha
  phytotoxicity rating AMBEL: 30
[5]; 250 g ai/ha
  phytotoxicity rating AMBEL: 30
[6]; 63 g ai/ha
  phytotoxicity rating SETVI: 20
[6]; 250 g ai/ha
  phytotoxicity rating SETVI: 0
[7]; 63 g ai/ha
  phytotoxicity rating ECHCG: 0
[7]; 250 g ai/ha
  phytotoxicity rating ECHCG: 0
[8]; 63 g ai/ha
  phytotoxicity rating CASOB: 10
[8]; 250 g ai/ha
  phytotoxicity rating CASOB: 20
[9]; 63 g ai/ha
  phytotoxicity rating DIGSA: 0
[9]; 250 g ai/ha
  phytotoxicity rating DIGSA: 0
[10]; 63 g ai/ha
  phytotoxicity rating AMARE: 70
[10]; 250 g ai/ha
  phytotoxicity rating AMARE: 70
[11]; 63 g ai/ha
  Pre-emerge phytotoxicity rating (0-100), crop damage, CORN: 0
[11]; 250 g ai/ha
  Pre-emerge phytotoxicity rating (0-100), crop damage, CORN: 0
[12]; 63 g ai/ha
  Pre-emerge phytotoxicity rating (0-100), crop damage, RICE: 0
[12]; 250 g ai/ha
  Pre-emerge phytotoxicity rating (0-100), crop damage, RICE: 10
[13]; 63 g ai/ha
  Pre-emerge Herbicidal Activity, phytotoxicity rating (0-100), ABUTH: 100
[13]; 250 g ai/ha
  Pre-emerge Herbicidal Activity, phytotoxicity rating (0-100), ABUTH: 90
[14]; 63 g ai/ha
  Pre-emerge Herbicidal Activity, phytotoxicity rating (0-100), SORHA: 0
[14]; 250 g ai/ha
  Pre-emerge Herbicidal Activity, phytotoxicity rating (0-100), SORHA: 0
[15]; 63 g ai/ha
  Pre-emerge Herbicidal Activity, phytotoxicity rating (0-100), IPOHE: 0
[15]; 250 g ai/ha
  Pre-emerge Herbicidal Activity, phytotoxicity rating (0-100), IPOHE: 60
[16]; 63 g ai/ha
  Pre-emerge Herbicidal Activity, phytotoxicity rating (0-100), CHEAL: 80
[16]; 250 g ai/ha
  Pre-emerge Herbicidal Activity, phytotoxicity rating (0-100), CHEAL: 100
[17]; 63 g ai/ha
  Pre-emerge Herbicidal Activity, phytotoxicity rating (0-100), AMBEL: 0
[17]; 250 g ai/ha
  Pre-emerge Herbicidal Activity, phytotoxicity rating (0-100), AMBEL: 30
[18]; 63 g ai/ha
  Pre-emerge Herbicidal Activity, phytotoxicity rating (0-100), SETVI: 0
[18]; 250 g ai/ha
  Pre-emerge Herbicidal Activity, phytotoxicity rating (0-100), SETVI: 60
[19]; 63 g ai/ha
  Pre-emerge Herbicidal Activity, phytotoxicity rating (0-100), ECHCG: 0
[19]; 250 g ai/ha
  Pre-emerge Herbicidal Activity, phytotoxicity rating (0-100), ECHCG: 0
[20]; 63 g ai/ha
  Pre-emerge Herbicidal Activity, phytotoxicity rating (0-100), CASOB: 0
[20]; 250 g ai/ha
  Pre-emerge Herbicidal Activity, phytotoxicity rating (0-100), CASOB: 40
[21]; 63 g ai/ha
  Pre-emerge Herbicidal Activity, phytotoxicity rating (0-100), DIGSA: 0
[21]; 250 g ai/ha
  Pre-emerge Herbicidal Activity, phytotoxicity rating (0-100), DIGSA: 20
[22]; 63 g ai/ha
  Pre-emerge Herbicidal Activity, phytotoxicity rating (0-100), AMARE: 70
[22]; 250 g ai/ha
  Pre-emerge Herbicidal Activity, phytotoxicity rating (0-100), AMARE: 100
[23]; 63 g ai/ha
  phytotoxicity rating CORN: 0
[23]; 250 g ai/ha
  phytotoxicity rating CORN: 0
[24]; 63 g ai/ha
  phytotoxicity rating RICE: 0
[24]; 250 g ai/ha
  phytotoxicity rating RICE: 0
